Source: patent publication US20260207578A1, “COMPOUND BASED ON SULFUR/OXYGEN SUBSTITUTED GLUTARIMIDE-BASED ISOINDOLINONE SKELETON AND USE THEREOF” (Gluetacs Therapeutics (Shanghai) Co., LTD., priority 2022, published 2026)

What was measured:
MV-4-11 = experiment: Half inhibitory concentration (IC50) against tumor cells, Cell Counting Kit-8; format: cell-based; conditions: Homo sapiens, MV4-11, CCK-8, 96 h treatment, read-out: inhibitory activity (IC50, nM) against tumor cells proliferation
Procedure: The tumor cells used herein were cultured in a cell culture medium listed in table A at 37° C. in an incubator with 5% CO2.
After the cells were treated with the compounds of the present disclosure for a period of time, the cell viability detection reagent was added to the culture medium for cell viability assessment according to the instructions provided with the CCK-8 kit. […] The growth inhibition of the compounds of the present disclosure on cells was plotted by Prism Graphpad software, and the IC50 values of the compounds of the present disclosure were calculated therefrom.

[1] = target: T1, human Cereblon WT GST-tagged protein (Homo sapiens, UniProt Q96SW2); experiment: CRBN-binding affinity, HTRF (CEREBLON BINDING kit); conditions: displacement of Thalidomide-Re reagent, 3 hours at room temperature
T1 construct: purchased CISBIO 64BDCRBNPEH
In short: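 Compounds displace a thalidomide-Re tracer from GST-tagged human Cereblon WT, detected with an Eu-labelled anti-GST antibody by time-resolved fluorescence. Signal at 620 nm was normalised against solvent and blank controls.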

IKZF1 = target: T2, IKZF1 (Homo sapiens, UniProt Q13422+Q96SW2); experiment: Western-blot assay, substrate protein in hPBMCs; format: cell-based; conditions: hPBMC cells, 24 hours, tested at 50 nM and 500 nM, table does not say which
T2 construct: endogenous in cells; host or cells: human PBMCs (Milecell Biotechnologies)
In short: (§1)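 hPBMCs (1×10^6 cells/mL) exposed 24 h to compound at 50 nM and 500 nM, lysed, and probed by Western blot. Band grayscale normalized to internal control gives % protein remaining versus DMSO; DC50 from concentration-response fit at half DMSO band intensity.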

CK1α = target: T3, CK1α (Homo sapiens, UniProt P48729+Q96SW2); experiment: Western-blot assay, substrate protein in hPBMCs; format: cell-based; conditions: hPBMC cells, 24 hours, tested at 50 nM and 500 nM, table does not say which
T3 construct: endogenous in cells; host or cells: human PBMCs (Milecell Biotechnologies)
In short: (§2)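 Thawed hPBMCs, 1×10^6 cells/mL; 24 h compound; RIPA + phosphatase inhibitor lysis, BCA-normalised loading, SDS-PAGE, NC transfer, immunodetection. Bands vs internal control → % remaining; DC50 = concentration at 50% of DMSO band intensity.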

IKZF2 = target: T4, IKZF2 (Homo sapiens, UniProt Q96SW2+Q9UKS7); experiment: Western-blot assay, substrate protein in hPBMCs; format: cell-based; conditions: hPBMC cells, 24 hours, tested at 50 nM and 500 nM, table does not say which
T4 construct: endogenous in cells; host or cells: human PBMCs (Milecell Biotechnologies)
In short: as §2

IKZF3 = target: T5, IKZF3 (Homo sapiens, UniProt Q96SW2+Q9UKT9); experiment: Western-blot assay, substrate protein in hPBMCs; format: cell-based; conditions: hPBMC cells, 24 hours, tested at 50 nM and 500 nM, table does not say which
T5 construct: endogenous in cells; host or cells: human PBMCs (Milecell Biotechnologies)
In short: as §1

GSPT1 = target: T6, GSPT1 (Homo sapiens, UniProt P15170+Q96SW2); experiment: Western-blot assay, substrate protein in hPBMCs; format: cell-based; conditions: hPBMC cells, 24 hours, tested at 50 nM and 500 nM, table does not say which
T6 construct: endogenous in cells; host or cells: human PBMCs (Milecell Biotechnologies)
In short: as §2

Wee1 = target: T7, Wee1 (Homo sapiens, UniProt P30291+Q96SW2); experiment: Western-blot assay, substrate protein in hPBMCs; format: cell-based; conditions: hPBMC cells, 24 hours, tested at 50 nM and 500 nM, table does not say which
T7 construct: endogenous in cells; host or cells: human PBMCs (Milecell Biotechnologies)
In short: as §2

T6 sequence (P15170 whole entry): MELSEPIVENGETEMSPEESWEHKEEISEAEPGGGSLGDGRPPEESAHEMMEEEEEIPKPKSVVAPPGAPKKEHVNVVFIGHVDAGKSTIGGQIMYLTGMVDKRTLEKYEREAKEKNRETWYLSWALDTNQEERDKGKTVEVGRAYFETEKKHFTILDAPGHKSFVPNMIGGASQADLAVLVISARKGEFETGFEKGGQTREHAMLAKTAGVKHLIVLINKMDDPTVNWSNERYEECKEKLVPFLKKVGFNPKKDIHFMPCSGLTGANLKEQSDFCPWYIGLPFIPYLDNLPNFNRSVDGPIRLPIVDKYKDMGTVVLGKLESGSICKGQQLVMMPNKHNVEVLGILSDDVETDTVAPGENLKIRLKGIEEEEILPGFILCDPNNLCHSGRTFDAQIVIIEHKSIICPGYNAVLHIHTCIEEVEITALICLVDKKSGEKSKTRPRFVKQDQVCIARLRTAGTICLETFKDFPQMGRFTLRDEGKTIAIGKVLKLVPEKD
T6 sequence (Q96SW2 whole entry): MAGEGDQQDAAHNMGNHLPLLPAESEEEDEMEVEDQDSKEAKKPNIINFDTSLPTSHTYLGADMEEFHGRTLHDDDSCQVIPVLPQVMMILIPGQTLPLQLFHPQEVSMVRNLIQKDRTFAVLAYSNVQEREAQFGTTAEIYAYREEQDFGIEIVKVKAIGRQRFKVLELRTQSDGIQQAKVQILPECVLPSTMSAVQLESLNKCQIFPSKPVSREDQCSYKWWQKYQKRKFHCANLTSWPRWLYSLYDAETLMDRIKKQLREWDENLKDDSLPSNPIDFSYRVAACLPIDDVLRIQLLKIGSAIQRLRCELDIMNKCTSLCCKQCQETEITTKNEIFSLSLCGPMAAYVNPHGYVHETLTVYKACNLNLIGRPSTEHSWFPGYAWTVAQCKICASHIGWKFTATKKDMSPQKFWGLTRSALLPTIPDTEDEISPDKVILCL
T6 sequence (Q16531 whole entry partner): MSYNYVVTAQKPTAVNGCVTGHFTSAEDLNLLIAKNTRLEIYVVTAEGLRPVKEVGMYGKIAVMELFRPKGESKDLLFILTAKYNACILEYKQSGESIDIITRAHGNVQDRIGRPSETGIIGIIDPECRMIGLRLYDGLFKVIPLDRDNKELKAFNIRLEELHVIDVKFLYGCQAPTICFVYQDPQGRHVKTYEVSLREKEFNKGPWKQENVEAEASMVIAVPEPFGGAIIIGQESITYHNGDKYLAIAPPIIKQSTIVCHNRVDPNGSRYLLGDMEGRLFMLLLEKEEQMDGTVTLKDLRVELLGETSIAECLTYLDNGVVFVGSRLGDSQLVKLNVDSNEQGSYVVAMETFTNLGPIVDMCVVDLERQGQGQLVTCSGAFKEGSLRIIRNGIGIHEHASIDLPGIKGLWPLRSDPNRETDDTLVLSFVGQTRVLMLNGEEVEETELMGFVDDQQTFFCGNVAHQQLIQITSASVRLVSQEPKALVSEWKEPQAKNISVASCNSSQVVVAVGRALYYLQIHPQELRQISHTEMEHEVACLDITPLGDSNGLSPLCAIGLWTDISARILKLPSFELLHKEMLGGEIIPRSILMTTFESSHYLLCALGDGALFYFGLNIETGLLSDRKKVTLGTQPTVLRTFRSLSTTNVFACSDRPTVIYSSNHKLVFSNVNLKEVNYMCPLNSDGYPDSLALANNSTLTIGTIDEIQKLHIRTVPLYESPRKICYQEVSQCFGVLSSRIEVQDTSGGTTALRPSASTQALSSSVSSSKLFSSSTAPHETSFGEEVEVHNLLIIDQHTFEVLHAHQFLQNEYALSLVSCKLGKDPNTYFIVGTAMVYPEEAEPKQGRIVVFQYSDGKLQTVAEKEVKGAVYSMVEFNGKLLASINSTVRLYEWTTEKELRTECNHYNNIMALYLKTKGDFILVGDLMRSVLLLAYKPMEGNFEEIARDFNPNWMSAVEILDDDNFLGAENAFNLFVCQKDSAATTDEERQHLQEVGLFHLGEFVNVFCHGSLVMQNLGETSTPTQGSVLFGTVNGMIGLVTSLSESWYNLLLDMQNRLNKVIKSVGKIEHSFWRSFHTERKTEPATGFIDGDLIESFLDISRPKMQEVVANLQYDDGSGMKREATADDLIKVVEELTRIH
T4 sequence (Q9UKS7 whole entry): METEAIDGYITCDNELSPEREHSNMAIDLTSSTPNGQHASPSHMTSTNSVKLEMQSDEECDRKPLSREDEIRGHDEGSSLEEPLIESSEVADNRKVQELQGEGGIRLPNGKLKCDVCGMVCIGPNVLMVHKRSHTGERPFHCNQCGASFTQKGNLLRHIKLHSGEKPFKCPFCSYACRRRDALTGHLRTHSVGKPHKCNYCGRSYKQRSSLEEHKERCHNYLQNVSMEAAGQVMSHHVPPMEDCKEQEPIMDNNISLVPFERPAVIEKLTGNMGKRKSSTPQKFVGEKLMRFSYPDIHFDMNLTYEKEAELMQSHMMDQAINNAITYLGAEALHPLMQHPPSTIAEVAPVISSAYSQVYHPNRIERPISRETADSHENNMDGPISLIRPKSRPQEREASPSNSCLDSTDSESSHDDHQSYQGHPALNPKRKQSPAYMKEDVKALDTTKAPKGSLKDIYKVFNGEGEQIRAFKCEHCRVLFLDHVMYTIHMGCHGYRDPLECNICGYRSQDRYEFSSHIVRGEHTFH
T4 sequence (Q96SW2 whole entry): as the sequence (Q96SW2 whole entry) above
T4 sequence (Q16531 whole entry partner): as the sequence (Q16531 whole entry partner) above
T7 sequence (P30291 whole entry): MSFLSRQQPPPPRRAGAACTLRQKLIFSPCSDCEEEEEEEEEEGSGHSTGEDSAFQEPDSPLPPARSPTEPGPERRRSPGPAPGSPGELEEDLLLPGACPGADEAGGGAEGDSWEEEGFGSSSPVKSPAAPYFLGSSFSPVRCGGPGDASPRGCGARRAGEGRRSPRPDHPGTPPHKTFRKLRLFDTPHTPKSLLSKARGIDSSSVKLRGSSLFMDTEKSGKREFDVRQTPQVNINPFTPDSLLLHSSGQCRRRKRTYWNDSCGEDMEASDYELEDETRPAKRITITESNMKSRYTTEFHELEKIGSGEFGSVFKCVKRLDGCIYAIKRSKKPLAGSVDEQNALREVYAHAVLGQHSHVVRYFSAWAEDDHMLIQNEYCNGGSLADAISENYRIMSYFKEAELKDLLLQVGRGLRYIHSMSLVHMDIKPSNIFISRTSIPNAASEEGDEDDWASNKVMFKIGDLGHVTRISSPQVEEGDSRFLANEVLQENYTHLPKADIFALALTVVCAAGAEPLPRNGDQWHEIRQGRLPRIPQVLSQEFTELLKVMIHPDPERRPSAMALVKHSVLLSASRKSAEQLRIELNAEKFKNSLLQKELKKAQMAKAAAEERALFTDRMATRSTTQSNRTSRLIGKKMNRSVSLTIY
T7 sequence (Q96SW2 whole entry): as the sequence (Q96SW2 whole entry) above
T7 sequence (Q16531 whole entry partner): as the sequence (Q16531 whole entry partner) above
T1 sequence (Q96SW2 whole entry): as the sequence (Q96SW2 whole entry) above
T3 sequence (P48729 whole entry): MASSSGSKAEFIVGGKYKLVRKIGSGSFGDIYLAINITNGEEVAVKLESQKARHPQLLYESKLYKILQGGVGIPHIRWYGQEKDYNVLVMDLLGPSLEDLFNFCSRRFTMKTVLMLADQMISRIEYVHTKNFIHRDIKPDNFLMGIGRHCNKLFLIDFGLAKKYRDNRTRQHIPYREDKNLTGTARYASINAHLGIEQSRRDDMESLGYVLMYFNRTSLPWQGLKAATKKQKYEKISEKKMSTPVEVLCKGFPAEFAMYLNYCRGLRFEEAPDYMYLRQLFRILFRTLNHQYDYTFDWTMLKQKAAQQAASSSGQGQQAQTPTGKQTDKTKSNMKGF
T3 sequence (Q96SW2 whole entry): as the sequence (Q96SW2 whole entry) above
T3 sequence (Q16531 whole entry partner): as the sequence (Q16531 whole entry partner) above
T5 sequence (Q9UKT9 whole entry): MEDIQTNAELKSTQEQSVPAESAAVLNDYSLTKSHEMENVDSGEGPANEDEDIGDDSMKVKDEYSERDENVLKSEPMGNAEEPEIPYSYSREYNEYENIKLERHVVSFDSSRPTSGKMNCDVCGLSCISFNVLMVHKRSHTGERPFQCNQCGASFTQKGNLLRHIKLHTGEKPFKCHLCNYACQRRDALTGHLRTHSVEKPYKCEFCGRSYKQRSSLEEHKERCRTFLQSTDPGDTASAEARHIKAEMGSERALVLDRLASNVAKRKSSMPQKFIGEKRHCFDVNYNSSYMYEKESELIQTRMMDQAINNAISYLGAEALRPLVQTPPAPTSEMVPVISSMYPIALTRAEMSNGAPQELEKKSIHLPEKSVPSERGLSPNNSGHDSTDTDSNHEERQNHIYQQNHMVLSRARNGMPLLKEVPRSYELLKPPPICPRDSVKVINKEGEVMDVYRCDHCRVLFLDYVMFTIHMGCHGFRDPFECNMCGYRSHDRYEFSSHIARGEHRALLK
T5 sequence (Q96SW2 whole entry): as the sequence (Q96SW2 whole entry) above
T5 sequence (Q16531 whole entry partner): as the sequence (Q16531 whole entry partner) above

| IC50 (MV-4-11) [nM] | IC50 [1] [nM] | SMILES | substrate protein remaining % (IKZF1) | substrate protein remaining % (CK1α) | substrate protein remaining % (IKZF2) | substrate protein remaining % (IKZF3) | substrate protein remaining % (GSPT1) | substrate protein remaining % (Wee1) |
| --- | --- | --- | --- | --- | --- | --- | --- | --- |
| 50 to 100 | < 500 | O=C1CCC(N2Cc3cc(OC4CC5CN(C(c6ccccc6)c6ccccc6)CC5C4)ccc3C2=O)C(=O)N1 (stereo not drawn) [GT-06955, 3-(5-((2-benzhydryloctahydro-cyclopenta[c]pyrrol-5-yl)oxy)-1-oxoisoindolin-2-yl)piperidine-2,6-dione] | A (0%≤ substrate protein remaining % ≤80%) | A (0%≤ substrate protein remaining % ≤80%) | A (0%≤ substrate protein remaining % ≤80%) |  |  |  |
| 100 to 500 | 500 to 1000 | CC1(C)CCC(C(=O)N2CCC3(CC2)CC(Sc2ccc4c(c2)CN(C2CCC(=O)NC2=O)C4=O)C3)=C(c2ccc(Cl)cc2)C1 (stereo not drawn) [GT-06918, 3-(5-((7-(4′-chloro-5,5-dimethyl-3,4,5,6-tetrahydro-[1,1′-biphenyl]-2-carbonyl)-7-azaspiro[3.5]nonan-2-yl)thio)-1-oxoisoindolin-2-yl)piperidine-2,6-dione] | A (0%≤ substrate protein remaining % ≤80%) |  | A (0%≤ substrate protein remaining % ≤80%) | A (0%≤ substrate protein remaining % ≤80%) |  | A (0%≤ substrate protein remaining % ≤80%) |
| 100 to 500 | < 500 | O=C1CCC(N2Cc3cc(OC4CCCN(Cc5ccccc5-c5ccc(Cl)cc5)CC4)ccc3C2=O)C(=O)N1 (stereo not drawn) [GT-06934, 3-(5-((1-((4′-chloro-[1,1′-biphenyl]-2-yl)methyl)azepan-4-yl)oxy)-1-oxoisoindolin-2-yl)piperidine-2,6-dione] |  | A (0%≤ substrate protein remaining % ≤80%) | A (0%≤ substrate protein remaining % ≤80%) |  |  | A (0%≤ substrate protein remaining % ≤80%) |

More lines, now with the values behind:

| SMILES | IC50 (MV-4-11) [nM] | IC50 [1] [nM] | substrate protein remaining % (IKZF1) | substrate protein remaining % (CK1α) | substrate protein remaining % (IKZF2) | substrate protein remaining % (IKZF3) | substrate protein remaining % (GSPT1) | substrate protein remaining % (Wee1) |
| --- | --- | --- | --- | --- | --- | --- | --- | --- |
| CC1(C)CCC(CN2CCC3(CCC(Sc4ccc5c(c4)CN(C4CCC(=O)NC4=O)C5=O)CC3)CC2)=C(c2ccc(Cl)cc2)C1 (stereo not drawn) [GT-06874, 3-(5-((3-((4′-chloro-5,5-dimethyl-3,4,5,6-tetrahydro-[1,1′-biphenyl]-2-yl)methyl)-3-azaspiro[5.5]undecan-9-yl)thio)-1-oxoisoindolin-2-yl)piperidine-2,6-dione] | 100 to 500 | 1000 to 1900 |  | A (0%≤ substrate protein remaining % ≤80%) | A (0%≤ substrate protein remaining % ≤80%) | A (0%≤ substrate protein remaining % ≤80%) | A (0%≤ substrate protein remaining % ≤80%) | A (0%≤ substrate protein remaining % ≤80%) |
| CC1(C)CCC(CN2CCC(Sc3ccc4c(c3)CN(C3CCC(=O)NC3=O)C4=O)C(F)(F)C2)=C(c2ccc(Cl)cc2)C1 (stereo not drawn) [GT-06960, 3-(5-((1-((4′-chloro-5,5-dimethyl-3,4,5,6-tetrahydro-[1,1′-biphenyl]-2-yl)methyl)-3,3-difluoropiperidin-4-yl)thio)-1-oxoisoindolin-2-yl)piperidine-2,6-dione] | 500 to 1000 |  |  | A (0%≤ substrate protein remaining % ≤80%) |  |  | A (0%≤ substrate protein remaining % ≤80%) | A (0%≤ substrate protein remaining % ≤80%) |
| O=C1CCC(N2Cc3cc(OC4CCCN(C(c5ccccc5)c5ccccc5)CC4)ccc3C2=O)C(=O)N1 (stereo not drawn) [GT-06928, 3-(5-((1-benzhydrylazepan-4-yl)oxy)-1-oxoisoindolin-2-yl)piperidine-2,6-dione] | 10 to 50 | 500 to 1000 |  |  | A (0%≤ substrate protein remaining % ≤80%) |  |  | A (0%≤ substrate protein remaining % ≤80%) |
| O=C1CCC(N2Cc3cc(OC4CCCN(C(=O)c5ccccc5-c5ccc(Cl)cc5)CC4)ccc3C2=O)C(=O)N1 (stereo not drawn) [GT-06935, 3-(5-((1-(4′-chloro-[1,1′-biphenyl]-2-carbonyl)azepan-4-yl)oxy)-1-oxoisoindolin-2-yl)piperidine-2,6-dione] | 100 to 500 | < 500 |  | A (0%≤ substrate protein remaining % ≤80%) |  |  | A (0%≤ substrate protein remaining % ≤80%) | A (0%≤ substrate protein remaining % ≤80%) |
